From BindingDB's records for patent US20260042753 (Merck Patent, 2026) come the findings set out here.

This test deals with Mast/stem cell growth factor receptor Kit [V654A]. The test is described as follows: c-Kit(V654A) Assay. How it is done: c-Kit(V654A) (N-terminal GST-tagged, recombinant human c-Kit, amino acids 544-end containing the V654A mutation) is incubated with 8 mM MOPS pH 7.0, 0.2 mM EDTA, 250 μM GGMEDIYEFMGGKKK, 10 mM MgAcetate and [gamma-33P-ATP](specific activity approx. 500 cpm/pmol, concentration 200 μM). The reaction is initiated by the addition of the MgATP mix. After incubation for 40 minutes at room temperature, the reaction is stopped by the addition of 3% phosphoric acid solution. 10 μL of the reaction is then spotted onto a P30 filtermat and washed three times for 5 minutes in 75 mM phosphoric acid and once in methanol prior to drying and scintillation counting.
The compound `COCCNC(=O)c1ccc(-c2cc(-c3n[nH]c4cc(C(=O)NCCOC)ccc34)on2)cc1` [US20260042753, Compound A23] came in with an IC50 of 10 nM.

As for `COCCOc1cc2[nH]nc(-c3cc(-c4ccc(N5CC[C@H]6[C@H]5CCN6C)cc4)no3)c2cc1F` (relative stereo) [US20260042753, Compound A126], it took 1.7 nM to reach half-maximal inhibition (IC50). Next, `COCCOc1cc2[nH]nc(-c3cc(-c4ccc(C(=O)N5C[C@H]6CCOC[C@H]6C5)cc4)no3)c2cc1F` (relative stereo) [US20260042753, Compound A214]: 0.44 nM; `COCCOc1cc2[nH]nc(-c3cc(-c4ccc(C(=O)N5C[C@@H]6CC(=O)N[C@@H]6C5)cc4)no3)c2cc1F` (relative stereo) [US20260042753, Compound A203]: 1.4 nM. Then `COCCOc1cc2[nH]nc(-c3cc(-c4ccc([SH2+]([O-])C=N)cc4)no3)c2cc1F` [US20260042753, Compound A226], with 2 nM; and `COCCOc1cc2[nH]nc(-c3cc(-c4ccc(C(=O)N5CC[C@@H]6CNC(=O)[C@@H]65)cc4)no3)c2cc1F` (relative stereo) [US20260042753, Compound A89], with 0.57 nM.

Regarding `COCCOc1cc2[nH]nc(-c3cc(-c4ccc(C(=O)N5CC[C@H]6COC[C@H]6C5)cc4)no3)c2cc1F` (relative stereo) [US20260042753, Compound A215], the IC50 turned out to be 0.76 nM.
